{"source": "patent US20070202054A1", "about": "“Inhalant Formulation Containing Sulfoalkyl Ether Cyclodextrin and Corticosteroid” (priority 2003, published 2007)", "key": {"[1]": {"system": "red blood cells", "details": "concentrations typically used to solubilize pharmaceutical formulations; cited from earlier work"}, "[2]": {"test": "Viscosity of SAE-CD solutions (cone and plate viscometer)", "type": "physicochemical", "details": "25 C.", "experimental": "The performance of an inhalable solution of the invention in a nebulizer may depend upon the viscosity of the solution in its reservoir, the nebulization solution. Viscosity of the inhalable composition can have an impact on percentage of nebulization composition emitted from a nebulizer, output rate of nebulized corticosteroid and droplet size distribution.\nThe viscosity of aqueous solutions containing SAE-CD were measured using a cone and plate viscometer.\nA Brookfield Programmable DV-III+ Rheometer, CPE-40 cone and CPE 40Y plate (Brookfield Engineering Laboratories, Middleboro, Mass.) was used to make measurements on 0.5 ml samples at 1, 2, 3, 5 and 10 rpm. Samples were sheered for approximately 5 revolutions prior to each measurement. This allowed accurate rheological characterization of the samples. The temperature of all samples was equilibrated to 25±1 degree centigrade using a double wall viscometer cone supplied with water from an electronically controlled thermostatic circulating water bath (Model, 8001, Fisher Scientific, Pittsburgh, Pa.). The viscometer was calibrated using 5 and 50 centipoise using silicon oil calibration standards. Viscosity measurements were made at 5 or more rotation speeds to look for sheer thinning behavior (viscosities that decrease as the rate of sheer increases). Higher rotation speeds result in increased rates of sheer."}, "[3]": {"test": "Density of CAPTISOL solutions (pycnometer)", "type": "physicochemical", "details": "25° C.", "experimental": "The concentration of SAE-CD in solution can be expressed on a weight to weight or weight to volume basis; however, these two units are interconvertible. When a known weight of cyclodextrin is dissolved in a known weight of water, the % w/w cyclodextrin concentration is determined by dividing the cyclodextrin weight in grams by the total weight (cyclodextrin+water weight) in like units and multiplying by 100. When a known weight of cyclodextrin is dissolved to a known total volume, the % w/v cyclodextrin concentration is determined by dividing the cyclodextrin weight in grams by the total volume in milliliters and multiplying by 100. The correlation between the two cyclodextrin concentration percentages was experimentally determined by preparing various % w/w cyclodextrin solutions and measuring the density of each with a pycnometer at 25° C."}, "[4]": {"type": "physicochemical", "experimental": "The phase solubility binding curve for Salmeterol xinafoate and budesonide was determined as described herein, and the approximate equilibrium binding constant (Ki) of each with CAPTISOL was determined. […] The molar ratio of CAPTISOL to Salmeterol xinafoate at saturated solubility was about 3.2 under the test conditions used. Their may be a reduction in the amount of budesonide solubilized by CAPTISOL in the presence of Salmeterol xinafoate; however, clear aqueous liquid solution formulations comprising therapeutically effective amounts of budesonide and Salmeterol xinafoate were prepared."}, "[5]": {"details": "human, in vivo; cited from earlier work"}}}
{"molecule": "Sulfobutyl Ether-β-Cyclodextrin [Captisol]", "values": [{"measurement": "hemolytic behavior", "setting": "[1]", "value": "essentially no hemolytic behavior"}, {"measurement": "Viscosity", "setting": "[2]; Captisol 8.5 % w/w", "value": 1.75, "unit": "Cp"}, {"measurement": "Viscosity", "setting": "[2]; Captisol 29.8 % w/w", "value": 5.91, "unit": "Cp"}, {"measurement": "Viscosity", "setting": "[2]; Captisol 39.7 % w/w", "value": 17.0, "unit": "Cp"}, {"measurement": "Viscosity", "setting": "[2]; Captisol 49.4 % w/w", "value": 51.9, "unit": "Cp"}, {"measurement": "Viscosity", "setting": "[2]; Captisol 59.4 % w/w", "value": 527.0, "unit": "Cp"}, {"measurement": "Viscosity", "setting": "[2]; Captisol […] w/w", "value": 2.78, "unit": "Cp"}, {"measurement": "Density", "setting": "[3]; Captisol 8.5 % w/w", "value": 1.041, "unit": "g/mL"}, {"measurement": "Density", "setting": "[3]; Captisol 29.8 % w/w", "value": 1.149, "unit": "g/mL"}, {"measurement": "Density", "setting": "[3]; Captisol 39.7 % w/w", "value": 1.202, "unit": "g/mL"}, {"measurement": "Density", "setting": "[3]; Captisol 49.4 % w/w", "value": 1.259, "unit": "g/mL"}, {"measurement": "Density", "setting": "[3]; Captisol 59.4 % w/w", "value": 1.320, "unit": "g/mL"}, {"measurement": "Density", "setting": "[3]; Captisol […] w/w", "value": 1.095, "unit": "g/mL"}]}
{"molecule": "OCc1cc(C(O)CNCCCCCCOCCCCc2ccccc2)ccc1O", "note": "(centres unmarked) [Salmeterol xinafoate]", "values": [{"measurement": "approximate equilibrium binding constant (Ki) with CAPTISOL", "setting": "[4]", "value": "approximately 3,500"}, {"measurement": "molar ratio of CAPTISOL to drug at saturated solubility", "setting": "[4]", "value": "about 3.2"}]}
{"molecule": "CCCC1O[C@@H]2C[C@H]3[C@@H]4CCC5=CC(=O)C=C[C@]5(C)[C@H]4[C@@H](O)C[C@]3(C)[C@]2(C(=O)CO)O1", "note": "(stereo partly drawn) [Budesonide, (R,S)-11β,16α,17,21-tetrahydroxypregna-1,4-diene-3,20-dione cyclic 16,17-acetal with butyraldehyde]", "values": [{"measurement": "approximate equilibrium binding constant (Ki) with CAPTISOL", "setting": "[4]", "value": "~600"}]}
{"molecule": "CCNC(=O)[C@@H]1CCCN1C(=O)[C@H](CCCNC(=N)N)NC(=O)[C@H](CC(C)C)NC(=O)[C@@H](CC(C)C)NC(=O)[C@H](Cc1ccc(O)cc1)NC(=O)[C@H](CO)NC(=O)[C@H](Cc1c[nH]c2ccccc12)NC(=O)[C@H](Cc1c[nH]cn1)NC(=O)[C@@H]1CCC(=O)N1", "note": "[leuprolide acetate]", "values": [{"measurement": "mean bioavailability", "setting": "[5]", "value": 6.6, "unit": "%"}]}
